Results published in patent US20230287044A1, “NOVEL ANTIBACTERIAL PEPTIDE AND USE THEREOF” (priority 2020, published 2023).
Values after ≈ are worked out from the molar mass of the structure shown. Square brackets hold non-standard residues; d marks the D form. Ends that are not written are not given here. Peptide text beside a SMILES is read from it. * marks the point of attachment. Decanoyl = CCCCCCCCCC(=O)*; Hexanoyl = CCCCCC(=O)*

Key:
[1] = test system: VRE (E. faecalis) ATCC 51575; type: cell-based, Enterococcus faecalis; details: ATCC 51575, 18 h
How it was run: (§1)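 Mid-log cultures grown in CAMHB and diluted to 1× 10^6 cfu/ml in PBS were mixed with an equal volume of peptide in CAMHB (80 µM to 0.63 µM twofold dilutions). MIC taken as the mean of three independent experiments.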

[2] = test system: MRPA (P. aeruginosa) CCARM 2180; type: cell-based, Pseudomonas aeruginosa; details: CCARM 2180, 18 h
How it was run: as §1

[3] = test system: MRAB (A. baumannii) ATCC BAA 1605; type: cell-based, Acinetobacter baumannii; details: ATCC BAA 1605, 18 h
Procedure: The minimum growth inhibitory concentrations of the antibacterial peptides of the present invention weremeasured, and the results are shown in Table 3 below.
Specifically, the strains were grown in CAMHB until the midlog phase, and then diluted with PBS buffer to 1× 10^6 cfu/ml to prepare the bacterial solution, and the antibacterial peptide prepared in Example 1above was diluted with CAMHB to 80 µM, 40 µM, 20 µM, 10 µM, 5 µM, 2.5 µM, 1.25 µM and 0.63 µM, and then the bacterial solution was treated with the same volume.
The results are the average value of three independent experiments.

[4] = test system: MRSA (S. aureus) KCCM 40510; type: cell-based, Staphylococcus aureus; details: KCCM 40510, 18 h
How it was run: as §1

Compound	MIC VRE (E. faecalis) ATCC 51575 [1] [µM]	MIC MRPA (P. aeruginosa) CCARM 2180 [2] [µM]	MIC MRAB (A. baumannii) ATCC BAA 1605 [3] [µM]	MIC MRSA (S. aureus) KCCM 40510 [4] [µM]
CC[C@@H](C)[C@@H](NC(=O)[C@@H](Cc1c[nH]c2ccccc12)NC(=O)[C@@H](CCCCN)NC(=O)[C@@H](CCCNC(=N)N)NC(=O)[C@H](N)CCCNC(=N)N)C(=O)N[C@H](Cc1c[nH]c2ccccc12)C(=O)N[C@H](Cc1c[nH]c2ccccc12)C(=O)N[C@H](CC(C)C)C(=O)N[C@H](Cc1c[nH]c2ccccc12)C(=O)N[C@H](CCCCN)C(=O)N[C@H](CCCCN)C(=O)N[C@H](CCCCN)C(N)=O [KSH52, rrkwiwwlwkkk] (H-[dR][dR][dK][dW][dI][dW][dW][dL][dW][dK][dK][dK]-NH2; N-terminus assumed)	5 (≈ 9.07 µg/mL)	5 (≈ 9.07 µg/mL)	1.25 (≈ 2.27 µg/mL)	5 (≈ 9.07 µg/mL)
CC(C)[C@@H](NC(=O)[C@@H](Cc1c[nH]c2ccccc12)NC(=O)[C@@H](CCCNC(=N)N)NC(=O)[C@@H](CCCNC(=N)N)NC(=O)[C@H](N)CCCNC(=N)N)C(=O)N[C@H](Cc1c[nH]c2ccccc12)C(=O)N[C@@H](C(=O)N[C@@H](C(=O)N[C@H](Cc1c[nH]c2ccccc12)C(=O)N[C@H](CCCCN)C(N)=O)C(C)C)C(C)C [KSH57, rrrwvwvvwk] (H-[dR][dR][dR][dW][dV][dW][dV][dV][dW][dK]-NH2; N-terminus assumed)	20 (≈ 29.4 µg/mL)	20 (≈ 29.4 µg/mL)	5 (≈ 7.35 µg/mL)	20 (≈ 29.4 µg/mL)
CC[C@@H](C)[C@@H](NC(=O)[C@@H](Cc1c[nH]c2ccccc12)NC(=O)[C@@H](C)NC(=O)[C@@H](C)NC(=O)[C@H](N)Cc1c[nH]c2ccccc12)C(=O)NCC(=O)N[C@H](CC(C)C)C(=O)N[C@H](CCCNC(=N)N)C(=O)N[C@H](CCCNC(=N)N)C(N)=O [KSH78, waawiglrr] (H-[dW][dA][dA][dW][dI]G[dL][dR][dR]-NH2; N-terminus assumed)	>10	>10	5 (≈ 5.64 µg/mL)	>10
CC(C)[C@@H](NC(=O)[C@@H](Cc1c[nH]c2ccccc12)NC(=O)[C@@H](CCCNC(=N)N)NC(=O)[C@H](N)CCCNC(=N)N)C(=O)N[C@H](Cc1c[nH]c2ccccc12)C(=O)N[C@@H](C(=O)N[C@@H](C(=O)N[C@H](Cc1c[nH]c2ccccc12)C(=O)N[C@H](CCCCN)C(N)=O)C(C)C)C(C)C [KSH56, rrwvwvvwk] (H-[dR][dR][dW][dV][dW][dV][dV][dW][dK]-NH2; N-terminus assumed)	1.25 (≈ 1.64 µg/mL)	5 (≈ 6.57 µg/mL)	1.25 (≈ 1.64 µg/mL)	1.25 (≈ 1.64 µg/mL)
CC[C@@H](C)[C@@H](NC(=O)[C@@H](Cc1c[nH]c2ccccc12)NC(=O)[C@@H](C)NC(=O)[C@@H](C)NC(=O)[C@H](N)Cc1c[nH]c2ccccc12)C(=O)NCC(=O)N[C@H](CC(C)C)C(=O)N[C@H](CCCNC(=N)N)C(=O)N[C@H](CCCCN)C(=O)N[C@H](CCCCN)C(=O)N[C@H](CCCCN)C(N)=O [KSH75, waawiglrkkk] (H-[dW][dA][dA][dW][dI]G[dL][dR][dK][dK][dK]-NH2; N-terminus assumed)	>10	>10	2.5 (≈ 3.39 µg/mL)	>10
CC[C@@H](C)[C@@H](NC(=O)[C@@H](Cc1c[nH]c2ccccc12)NC(=O)[C@H](NC(=O)[C@@H](Cc1c[nH]c2ccccc12)NC(=O)[C@@H](CCCNC(=N)N)NC(=O)[C@@H](CCCNC(=N)N)NC(=O)[C@H](N)CCCNC(=N)N)[C@H](C)CC)C(=O)N[C@H](CC(C)C)C(=O)N[C@H](Cc1c[nH]c2ccccc12)C(N)=O [KSH59, rrrwiwilw] (H-[dR][dR][dR][dW][dI][dW][dI][dL][dW]-NH2; N-terminus assumed)	0.63 (≈ 0.872 µg/mL)	2.5 (≈ 3.46 µg/mL)	1.25 (≈ 1.73 µg/mL)	0.63 (≈ 0.872 µg/mL)
CC[C@@H](C)[C@@H](NC(=O)[C@@H](Cc1c[nH]c2ccccc12)NC(=O)[C@@H](CCCNC(=N)N)NC(=O)[C@H](N)CCCNC(=N)N)C(=O)N[C@H](Cc1c[nH]c2ccccc12)C(=O)N[C@@H](C(=O)N[C@H](CC(C)C)C(=O)N[C@H](Cc1c[nH]c2ccccc12)C(=O)N[C@H](CCCNC(=N)N)C(N)=O)C(C)C [KSH54, rrwiwvlwr] (H-[dR][dR][dW][dI][dW][dV][dL][dW][dR]-NH2; N-terminus assumed)	0.63 (≈ 0.863 µg/mL)	2.5 (≈ 3.42 µg/mL)	0.63 (≈ 0.863 µg/mL)	0.63 (≈ 0.863 µg/mL)
CCCCCC(=O)NCCCC[C@@H](N)C(=O)N[C@H](Cc1c[nH]c2ccccc12)C(=O)N[C@H](CC(C)C)C(=O)N[C@H](CC(C)C)C(=O)N[C@H](Cc1c[nH]c2ccccc12)C(=O)N[C@@H](C(=O)NCC(=O)N[C@H](CC(C)C)C(=O)N[C@H](CCCNC(=N)N)C(=O)N[C@H](CCCCN)C(=O)N[C@H](CCCCN)C(=O)N[C@H](CCCNC(=N)N)C(N)=O)[C@H](C)CC [KSH9, kwllwiglrkkr] (H-[dK](Hexanoyl)[dW][dL][dL][dW][dI]G[dL][dR][dK][dK][dR]-NH2; N-terminus assumed)	1.25 (≈ 2.12 µg/mL)	10 (≈ 16.9 µg/mL)	5 (≈ 8.47 µg/mL)	1.25 (≈ 2.12 µg/mL)
CCCCCCCCCC(=O)NCCCC[C@@H](N)C(=O)N[C@H](Cc1c[nH]c2ccccc12)C(=O)N[C@H](CC(C)C)C(=O)N[C@H](CC(C)C)C(=O)N[C@H](Cc1c[nH]c2ccccc12)C(=O)N[C@@H](C(=O)NCC(=O)N[C@H](CC(C)C)C(=O)N[C@H](CCCNC(=N)N)C(=O)N[C@H](CCCCN)C(=O)N[C@H](CCCCN)C(=O)N[C@H](CCCNC(=N)N)C(N)=O)[C@H](C)CC [KSH10, kwllwiglrkkr] (H-[dK](Decanoyl)[dW][dL][dL][dW][dI]G[dL][dR][dK][dK][dR]-NH2; N-terminus assumed)	5 (≈ 8.75 µg/mL)	>20	>20	5 (≈ 8.75 µg/mL)
WLWVWVRKKR-NH2 [LSH5]	10	40	2.5	10
CC(C)[C@@H](NC(=O)[C@H](N)Cc1c[nH]c2ccccc12)C(=O)N[C@@H](C(=O)N[C@H](Cc1c[nH]c2ccccc12)C(=O)N[C@@H](C(=O)N[C@H](Cc1c[nH]c2ccccc12)C(=O)N[C@H](CCCCN)C(=O)N[C@H](CCCCN)C(=O)N[C@H](CCCCN)C(N)=O)C(C)C)C(C)C [KSH66, wvvwvwkkk] (H-[dW][dV][dV][dW][dV][dW][dK][dK][dK]-NH2; N-terminus assumed)	0.63 (≈ 0.792 µg/mL)	>10	1.25 (≈ 1.57 µg/mL)	1.25 (≈ 1.57 µg/mL)
